Laboratory results from patent US9120787B2, “HIV replication inhibitors” (priority 2011, dated 2015).

Columns and labels:
HIV-1Ba-L [1] = test: Inhibition of virus replication in MAGI-CCR5 cells (β-galactosidase reporter); type: cell-based; settings: HIV-1Ba-L in MAGI-CCR5 cells; for IC50: Human immunodeficiency virus 1, 48 hours, β-galactosidase reporter expression, read-out: IC50
Experimental: (§1) The anti-viral activity of dihydropyrimidines was shown by inhibition of virus replication in MAGI-CCR5 cells. MAGI-CCR5 cells are derived from HeLa-CD4-LTR-β-galactosidase cells. The cells have been engineered to express high levels of CD4 and CCR5 and contain one copy of the HIV-1 LTR promoter driving expression of the β-galactosidase gene upon HIV-1 Tat transactivation. On the day preceding the assay, the cells were plated at 1.0×10^4 cells per well and maintained at 37° C. and 5% CO2 in a humidified incubator. Total cell count and viability was visually assessed using a hemacytometer and trypan blue exclusion.
Compounds were evaluated at six concentrations (triplicate wells/concentration). On the day of assay setup, compound dilutions were prepared at two-times (2×) the final concentrations. Media was decanted and wells were replenished with 50 μl of 2× compounds, followed by the addition of 50 μl of diluted virus. Identical uninfected assays were prepared for parallel cytotoxicity testing.
Evaluation of Dihydropyrimidines vs. HIV-1Ba-L in MAGI-CCR5 Cells

[2] = Cytotoxicity by MTS staining in uninfected MAGI-CCR5 cells; type: cell-based; settings: human, read-out: TC50
Experimental: as §1, with “exclusion. Compounds were evaluated at six concentrations (triplicate wells/concentration). On the day of assay setup, compound dilutions were prepared at two-times (2×) the final concentrations. Media was decanted and wells were replenished with 50 μl of 2× compounds, followed by the addition of 50 μl of diluted virus. Identical uninfected assays were prepared for parallel cytotoxicity testing.” for “exclusion.”

HIV-1Ba-L [3] = test: HIV-1Ba-L replication in PBMCs (supernatant RT end-point); settings: for TI (TC50/IC50): HIV-1Ba-L in PBMCs; for IC50: Human immunodeficiency virus 1, PBMC, 168 h
Experimental: Evaluation of Dihydropyrimidines vs. HIV-1Ba-L in Peripheral Blood Mononuclear Cells (PBMCs)
Cultures of pooled phytohemagglutinin stimulated peripheral blood mononuclear cells (PBMC) were seeded into a 96-well plate at plating density of 5×10^4 cells/well. Compounds were serially diluted into media in ½-log increments using a high test of […] and […] of each concentration (nine total concentrations). Cells were infected with HIV strains HIV-1Ba-L and NL4-3 at an MOI=0.1. The PBMCs were cultured for seven days in an humidified incubator maintained at 37° C., 5% CO2 atmosphere. At the assay end-point, the supernatant was collected and analyzed for reverse transcriptase activity. For the RT assay, tritiated thymidine triphosphate (3H-TTP, 80 Ci/mmol) was diluted 1:1 dH2O:Ethanol at 1 mCi/ml. Poly rA:oligo dT template:primer was prepared as a stock solution by combining 150 μl poly rA (20 mg/ml) with 0.5 mL oligo dT (20 units/ml) and 5.35 ml sterile dH2O followed by aliquoting (1.0 ml) and storage at −20° C. The RT reaction buffer contained of 125 ml 1.0 M EGTA, 125 ml dH2O, 125 ml 20% Triton X100, 50 ml 1.0 M Tris (pH 7.4), 50 ml 1.0 M DTT, and 40 ml 1.0 M MgCl2. The final reaction mixture was prepared by combining 1 part 3H-TTP, 4 parts dH2O, 2.5 parts poly rA:oligo dT stock and 2.5 parts reaction buffer. To each well, ten microliters of the reaction mixture and 15 μl of virus containing supernatant were added. The plates were incubated at 37° C. for 60 minutes. Following incubation, the reaction volume was spotted onto DE81 filter-mats, washed 5 times for 5 minutes each in a 5% sodium phosphate buffer or 2×SSC. […] were washed 2 times for 1 minute each in distilled water, 2 times for 1 minute each in 70% ethanol, and then dried. Incorporated radioactivity (counts per minute, CPM) was quantified using standard liquid scintillation techniques.

[4] = Cytotoxicity by MTS staining in PBMCs; type: cell-based; settings: human, peripheral blood mononuclear cells (PBMC), MTS staining, read-out: TC50
Experimental: Cytotoxicity was assessed by MTS staining. At assay end-point, PBMC were stained with the addition of […] of the soluble tetrazolium-based dye MTS to determine cell viability and quantify compound toxicity. The plates were incubated 4 to 6 hrs at 37° C. Following incubation, the activity was assessed by reading absorbance values at 490/650 nm.

| SMILES | TI (TC50/IC50) (HIV-1Ba-L [1]) | IC50 (HIV-1Ba-L [1]) | CC50 at 48 h [2] | TI (TC50/IC50) (HIV-1Ba-L [3]) | IC50 (HIV-1Ba-L [3]) | CC50 at 7 days [4] |
| --- | --- | --- | --- | --- | --- | --- |
| CC1=C(c2nc(-c3ccc4ccccc4c3)cs2)C(c2cccc(O)c2)NC(=O)N1 (stereo not shown) [Example 36] | D (D < 10.0) | 5 to 100 µM | 50 to 100 µM | D (D < 10.0) | 5 to 100 µM | < 50 µM |
| CC(C)(C)NC(=O)[C@@H]1CN(Cc2cccnc2)CCN1C[C@@H](O)C[C@@H](Cc1ccccc1)C(=O)N[C@H]1c2ccccc2C[C@H]1O [Indinavir, reference compound] | – | – | – | >21.0 | 0.048 µM | > 1 µM |
| CC1=C(c2nc(-c3ccc(C#N)cc3)cs2)C(c2ccc(Cl)nc2)NC(=O)N1 (stereo not shown) [Example 3] | A (A = TI (TC50/IC50) ≧ 100.0) | 1 to 5 µM | ≥ 100 µM | A (A = TI (TC50/IC50) ≧100.0) | < 1 µM | ≥ 100 µM |
| CC1=C(c2nc(-c3cccc(O)c3)cs2)C(c2cccc(O)c2)NC(=O)N1 (stereo not shown) [Example 38] | D (D < 10.0) | 5 to 100 µM | 50 to 100 µM | D (D < 10.0) | 5 to 100 µM | 50 to 100 µM |
| CC1=C(c2nc(-c3ccc(C#N)cc3)cs2)C(c2cccc(F)c2)NC(=O)N1 (stereo not shown) [Example 50] | C (C < 50.0 to 10.0) | 1 to 5 µM | ≥ 100 µM | A (A = TI (TC50/IC50) ≧100.0) | < 1 µM | ≥ 100 µM |
| CC1=C(c2nc(-c3ccc(Cl)cc3)cs2)C(c2cccc(O)c2)NC(=O)N1 (stereo not shown) [Example 74] | C (C < 50.0 to 10.0) | 1 to 5 µM | 50 to 100 µM | C (C < 50.0-10.0) | 1 to 5 µM | 50 to 100 µM |
| CC1=C(c2nc(-c3ccc(C#N)cc3)cs2)C(c2ccc(Cl)nc2Cl)NC(=O)N1 (stereo not shown) [Example 92] | A (A = TI (TC50/IC50) ≧ 100.0) | < 1 µM | ≥ 100 µM | C (C < 50.0-10.0) | 1 to 5 µM | 50 to 100 µM |
| c1cc(CN2CCCNCCNCCCNCC2)ccc1CN1CCCNCCNCCCNCC1 [AMD 3100, reference compound] | – | > 10 µM | > 10 µM | – | > 10 µM | > 10 µM |
| CC1=C(c2nc(-c3ccc(C#N)cc3)cs2)C(c2ccc(O)cc2)NC(=O)N1 (stereo not shown) [Example 48] | A (A = TI (TC50/IC50) ≧ 100.0) | < 1 µM | ≥ 100 µM | A (A = TI (TC50/IC50) ≧100.0) | < 1 µM | ≥ 100 µM |
| CC1=C(c2nc(-c3ccc(F)cc3)cs2)C(c2cccc(O)c2)NC(=O)N1 (stereo not shown) [Example 44] | C (C < 50.0 to 10.0) | 1 to 5 µM | 50 to 100 µM | D (D < 10.0) | 5 to 100 µM | 50 to 100 µM |
| CC1=C(c2nc(-c3ccc(C#N)cc3)cs2)C(c2cccc(O)c2)NC(=O)N1C (stereo not shown) [Example 69] | B (B < 100.0-50.0) | 1 to 5 µM | ≥ 100 µM | C (C < 50.0-10.0) | 1 to 5 µM | ≥ 100 µM |
| COc1cccc(C2NC(=O)NC(C)=C2c2nc(-c3ccc(C#N)cc3)cs2)n1 (stereo not shown) [Example 28] | B (B < 100.0-50.0) | 1 to 5 µM | ≥ 100 µM | B (B < 100.0-50.0) | 1 to 5 µM | ≥ 100 µM |
| CC1=C(c2nc(-c3ccc(C#N)cc3)cs2)C(c2ccc(OCc3ccccc3)c(Cl)c2)NC(=O)N1 (stereo not shown) [Example 81] | B (B < 100.0-50.0) | 1 to 5 µM | ≥ 100 µM | A (A = TI (TC50/IC50) ≧100.0) | < 1 µM | ≥ 100 µM |
| CC1=C(c2nc(-c3ccc(C#N)cc3)cs2)C(c2cccnc2F)NC(=O)N1 (stereo not shown) [Example 29] | A (A = TI (TC50/IC50) ≧ 100.0) | < 1 µM | ≥ 100 µM | A (A = TI (TC50/IC50) ≧100.0) | < 1 µM | ≥ 100 µM |
| CC1=C(c2nc(-c3ccc(C#N)cc3)cs2)C(c2cc3ccccc3nc2Cl)NC(=O)N1 (stereo not shown) [Example 5] | D (D < 10.0) | 5 to 100 µM | ≥ 100 µM | – | – | – |
| CC1=C(c2nc(-c3ccc(C#N)cc3)cs2)C(c2ccc(F)c(C#N)c2)NC(=O)N1 (stereo not shown) [Example 56] | C (C < 50.0 to 10.0) | 5 to 100 µM | ≥ 100 µM | – | – | – |
| CC1=C(c2nc(-c3ccc(C#N)cc3)cs2)C(c2ccc3ccccc3n2)NC(=O)N1 (stereo not shown) [Example 6] | C (C < 50.0 to 10.0) | 1 to 5 µM | ≥ 100 µM | – | – | – |
| COc1ccc(C2NC(=O)NC(C)=C2c2nc(-c3ccc(C#N)cc3C)cs2)cn1 (stereo not shown) [Example 85] | B (B < 100.0-50.0) | < 1 µM | < 50 µM | – | – | – |
| COc1ncc(C2NC(=O)NC(C)=C2c2nc(-c3ccc(C#N)cc3)cs2)cn1 (stereo not shown) [Example 31] | C (C < 50.0 to 10.0) | 1 to 5 µM | ≥ 100 µM | – | – | – |
| CC1=C(c2nc(-c3ccc(C#N)cc3)cs2)C(c2ccc(OC(F)(F)F)cc2)NC(=O)N1 (stereo not shown) [Example 63] | D (D < 10.0) | 5 to 100 µM | ≥ 100 µM | – | – | – |
| CC1=C(c2nc(-c3ccc(C#N)cc3)cs2)C(c2cc3ccccc3s2)NC(=O)N1 (stereo not shown) [Example 12] | C (C < 50.0 to 10.0) | 1 to 5 µM | ≥ 100 µM | – | – | – |
| CC1=C(c2nc(-c3ccc(C#N)cc3)cs2)C(c2ccc(C#N)c(F)c2)NC(=O)N1 (stereo not shown) [Example 57] | C (C < 50.0 to 10.0) | 5 to 100 µM | ≥ 100 µM | – | – | – |
| CC1=C(c2nc(-c3cccc(C#N)c3)cs2)C(c2cccc(O)c2)NC(=O)N1 (stereo not shown) [Example 66] | D (D < 10.0) | 5 to 100 µM | 50 to 100 µM | – | – | – |
| COc1ncccc1C1NC(=O)NC(C)=C1c1nc(-c2ccc(C#N)cc2)cs1 (stereo not shown) [Example 27] | C (C < 50.0 to 10.0) | 5 to 100 µM | ≥ 100 µM | – | – | – |
| COc1ccc(C2NC(=O)NC(C)=C2c2nc(-c3ccc(C#N)cc3)cs2)cc1O (stereo not shown) [Example 72] | A (A = TI (TC50/IC50) ≧ 100.0) | < 1 µM | ≥ 100 µM | – | – | – |
| CC1=C(c2nc(-c3ccc(C#N)cc3)cs2)C(c2cccnc2Cl)NC(=O)N1 (stereo not shown) [Example 4] | C (C < 50.0 to 10.0) | 1 to 5 µM | ≥ 100 µM | – | – | – |
| CC1=C(c2nc(-c3ccc(C#N)cc3)cs2)C(c2ccc(-c3ccccc3)cc2)NC(=O)N1 (stereo not shown) [Example 58] | C (C < 50.0 to 10.0) | 1 to 5 µM | ≥ 100 µM | – | – | – |
| CC1=C(c2nc(-c3ccc(C#N)cc3)cs2)C(c2cc(Br)cs2)NC(=O)N1 (stereo not shown) [Example 13] | D (D < 10.0) | 5 to 100 µM | ≥ 100 µM | – | – | – |
